Laboratory results taken from US6590140B1, “Metal-regulated transporters and uses therefor” (Trustees of Dartmouth College, priority 1996, dated 2003).

How the values were obtained:
[1] = system: divalent cation uptake system; settings: total zinc; earlier studies (Fuhrmann and Rothstein 1968); read-out: apparent Km of zinc uptake by the divalent cation uptake system; cited from earlier work
[2] = system: zrt1zrt2 strain; test: Cell-associated zinc, zrt1zrt2 strain; type: cell-based, Saccharomyces cerevisiae
Description: Zinc uptake assays were performed as described previously for iron uptake (Eide et al. (1992) J. Biol. Chem. 267:20774-20781) except that ^65ZnCl2 (Amersham) and LZM-EDTA were substituted for ^59FeCI3 and LIM-EDTA, respectively. Cells were incubated for 5 minutes in LZM-EDTA plus the indicated concentration of ^65Zn, collected on glass fiber filters (Schleicher and Schuell), washed with 10 ml ice-cold SSW (1 mM EDTA, 20 mM trisodium citrate, 1 mM KH2PO4, 1 mM CaCl2, 5 mM MgSO4, 1 mM NaCl pH 4.2), and cell-associated radioactivity was measured by liquid scintillation counting. […] Michaelis-Menten kinetic values were determined using […] software (Intellikinetics, Princeton, N.J.). […] The statistical significance of the differences of values relative to controls was determined with one-way analysis of variance (ANOVA) followed by a Dunnett multiple comparison test. β-galactosidase activity was assayed in cells harvested at an OD600 of 0.5-2.0 as described by Guarente (Guarente, L. (1983) Methods Enzymol. 101:181-191) and activity is expressed as the change in absorbance at 420 nm×1000 divided by (min×ml of culture used×OD600 of the culture). Cell-associated zinc was measured in parallel cultures supplemented with tracer amounts of ^65Zn (10 μM) and nonradioactive zinc to the indicated final concentration. […]

[3] = system: zrt2 (ZHY2) cells; test: Zinc-limited growth, zrt2 mutant yeast; type: cell-based, Saccharomyces cerevisiae; settings: zrt2, LZM, 16 hours
Description: Strains used were DY1457 (MATα ade6 can1 his3 leu2 trp1 ura3), ZHY1 (AMTα ade6 can1 his3 leu2 trp1 ura3 zrt1::LEU2), ZHY2 (MATα ade6 can1 his3 leu2 trp1 ura3 zrt2::HIS3), and ZHY3 (MATα ade6 can1 his3 leu2 trp1 ura3 zrt1::LEU2 zrt2::HIS3). Yeast were grown in YP or SD media (Sherman et al. (1986) Methods in Yeast Genetics, Cold Spring Harbor Laboratory, Cold Spring Harbor, N.Y.) supplemented with necessary auxotrophic requirements and either 2% glucose or 2% galactose. Zinc-limiting YP and SD agar plates contained either bathophenanthroline disulfonate (BPS, 200 μM) or EDTA (1 mM), respectively. […] The concentrations of free (i.e. unchelated) zinc were calculated using MAXCHELATOR software (Chris Patton, Stanford University). Cell number in liquid cultures was determined by measuring the absorbance of cell suspensions at 600 nm (OD600) and converting to cell number with a standard curve.
To further assess the role of the low affinity system as a source of zinc, growth of wild type and zrt2 cells in a zinc-limiting medium, LZM, supplemented with increasing amounts of zinc was examined. […] Number of cell divisions are plotted against [Zn]T and the calculated free zinc concentration ([Zn]F). […]

For `[Zn+2]` [zinc], the Km [1] is listed as roughly 500 µM, the cell-associated zinc ([2]; 10 μM total zinc) is listed as 5±0.6 pmol/10^6 cells and the cell-associated zinc ([2]; 1000 μM total zinc) is listed as 86±21 pmol/10^6 cells. The “calculated free zinc [Zn]F sufficient for maximum growth yield” value [3] was roughly 6 pM and the “total zinc sufficient for maximum growth yield” value [3] was 10 µM.
